Test results taken from patent US20260103485A1, “COMPOUND BASED ON OXIDATIVE STRESS AND ANTI-AMYLOID AGGREGATION MECHANISM, PREPARATION METHOD THEREFOR AND USE THEREOF” (SHENZHEN RAYTONE PHARMACEUTICAL CO., LTD, priority 2022, published 2026).
“Also recorded” adds a separate entry of the source.

Assays:
[1] = system: sodium selenite-induced New Zealand rabbit cataract model; test: Pharmacodynamic study on sodium selenite-induced New Zealand rabbit cataract model (slit lamp lens opacity grading); format: in vivo; conditions: 1.5% (w/w) eye drops; for Number of lenses with lens opacity grade II: Grade II: slightly increased density of lens nucleus; for Number of lenses with lens opacity grade III: Grade III: translucent lens nucleus; for Effect compared with the core fragment compound c (Gc) group / Effect compared with the core fragment compound d (Gd) group / Effect compared with the model group (MG): chi-square test, p<0.05; for Therapeutic effect on the sodium selenite-induced cataract model: conclusion; for Number of lenses with lens opacity grade I: Grade I: vacuoles in periphery or anterior cortex of lens; for Number of lenses with lens opacity grade IV: Grade IV: opacity of lens nucleus not involving cortex
Method: Neonatal New Zealand rabbits were P7 days old in ordinary grade, and 5 baby rabbits per litter were breastfed with one mother rabbit.
The young rabbits were randomly divided into 6 groups with 5 rabbits in each group. • 1) Normal control group (CG): Normal feeding. • 2) Disease model group (MG): At day P10, young rabbits were injected subcutaneously with sodium selenite solution (in normal saline) at 20 μmol/kg body weight. After day P15, normal saline eye drops were dripped into the left eye 3 times a day for 30 consecutive days. • 3) Compound 1 group (group 1, G1): At day P10, young rabbits were injected subcutaneously with sodium selenite solution (in normal saline) at 20 μmol/kg body weight. After day P15, 1.5% (w/w) compound 1 eye drops were dripped into the left eye 3 times a day for 30 consecutive days. • 4) Compound 2 group (group 2, G2): At day P10, young rabbits were injected subcutaneously with sodium selenite solution (in normal saline) at 20 μmol/kg body weight of. After day P15, 1.5% (w/w) compound 2 eye drops were dripped into the left eye 3 times a day for 30 consecutive days. • 5) Compound c group (group c, Gc): At day P10, young rabbits were injected subcutaneously with sodium selenite solution (in normal saline) at 20 μmol/kg body weight. After day P15, 1.5% (w/w) compound c eye drops were dripped into the left eye 3 times a day for 30 consecutive days. • 6) 3,3′-dithiodipropionic acid group (group d, Gd): At day P10, young rabbits were injected subcutaneously with sodium selenite solution (in normal saline) at 20 μmol/kg body weight. After day P15, 1.5% (w/w) 3,3′-dithiodipropionic acid eye drops were dripped into the left eye 3 times a day for 30 consecutive days.
Slit lamp observation: Slit lamp observation was performed on each group of sodium selenite-induced neonatal New Zealand rabbits before the administration, and 7 days, 14 days, and 30 days after the administration respectively, and the degree of lens opacity was graded to determine the therapeutic effect. Lens opacity grading standard [Hiraoka T, Clark J I. Inhibition of lens opacification during the early stages of cataract formation[J].

mice presbyopia model = test: Pharmacodynamic study on mice presbyopia model (lens thickness deformation under fixed pressure); format: in vivo, Mice (C57BL/6J); conditions: 1.5% (w/w) eye drops; for Lens thickness (deformation): 8 months old C57BL/6J mice, left eye, 3 times a day, 45 consecutive days, micrometer screw after fixed pressure, 5 lenses; for Therapeutic effect on elastic recovery of aged mice: conclusion, 45 days
Excerpt: Mice (8 months old, C57BL/6J), normal grade.
The mice were randomly divided into 4 groups with 5 mice in each group. • 1) Model group (MG): normal saline eye drops were dripped into the left eye for 45 consecutive days, 3 times a day. • 2) Compound 1 Group (group 1, G1): 1.5% (w/w) compound 1 eye drops were dripped into the left eye for 45 consecutive days, 3 times a day. • 3) Compound 2 Group (group 2, G2): 1.5% (w/w) compound 2 eye drops were dripped into the left eye for 45 consecutive days, 3 times a day. • 4) 3,3′-dithiodipropionic acid group (group d, Gd): 1.5% (w/w) 3,3′-dithiodipropionic acid eye drops were dripped into the left eye for 45 consecutive days, 3 times a day.
Measurement of lens thickness deformation: After 45 consecutive days of eye dripping, mice were euthanized with carbon dioxide and flushed with saline. Lens thickness was measured using a micrometer screw after applying a fixed pressure.

[2] = of 5 lenses, left eye, 3 times a day, 30 consecutive days

Row | Compound | Number of lenses with lens opacity grade II [1, 2] | Number of lenses with lens opacity grade III [1, 2] | Effect compared with the core fragment compound c (Gc) group [1] | Effect compared with the core fragment compound d (Gd) group [1] | Effect compared with the model group (MG) [1] | Therapeutic effect on the sodium selenite-induced cataract model [1] | Number of lenses with lens opacity grade I [1, 2] | Lens thickness (deformation) (mice presbyopia model) | Therapeutic effect on elastic recovery of aged mice (mice presbyopia model) | Number of lenses with lens opacity grade IV [1, 2] | Therapeutic effect on elastic recovery of aged mice (mice presbyopia model; listed as G1) | Number of lenses with lens opacity grade V ([1]; of 5 lenses, left eye, 3 times a day, 30 consecutive days, Grade V: opacity of lens nucleus and perinuclear cortex) | Number of lenses with lens opacity grade VI ([1]; of 5 lenses, left eye, 3 times a day, 30 consecutive days, Grade VI: complete opacity of lens)
1 | C[C@H](CCCC(C)(C)O)[C@H]1CC[C@@]2(C)C3=C(CC[C@]12C)[C@@]1(C)CC[C@H](O)C(C)(C)[C@@H]1CC3 [Compound c, reference compound] | 2 | 3 |  |  |  |  |  |  |  |  |  |  | 
2 | C[C@H](CCCC(C)(C)OC(=O)CCSSCCC(=O)O)[C@H]1CC[C@@]2(C)C3=C(CC[C@]12C)[C@@]1(C)CC[C@H](OC(=O)CCSSCCC(=O)O)C(C)(C)[C@@H]1CC3 [Compound 2] | 1 | 1 | significantly superior | significantly superior | significantly superior | significant therapeutic effects; also recorded: best therapeutic effect | 3 | 1.51 ± 0.02 | significant therapeutic effects |  |  |  | 
3 | C[C@H](CCCC(C)(C)O)C1CC[C@@]2(C)C3=C(CC[C@]12C)[C@@]1(C)CC[C@H](OC(=O)CCSSCCC(=O)O)C(C)(C)[C@@H]1CC3 (stereo partly drawn) [Compound 1] | 2 | 1 | significantly superior | significantly superior | significantly superior | significant therapeutic effects | 1 | 1.42 ± 0.03 | significant therapeutic effects | 1 | most significant effect |  | 
4 | O=C(O)CCSSCCC(=O)O [3,3′-dithiodipropionic acid, reference compound] |  | 1 |  |  |  |  |  | 1.55 ± 0.01 |  | 2 |  | 1 | 1
